We go through 24 compounds from PubChem BioAssay AID602186 (Broad Institute, 2012).

Active and inactive are the calls of the source.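 The calls were made as follows: active = compounds reducing C. glabrata growth on glycerol with a fitted half-effect dose within twice the top tested dose; inconclusive = flat curve with moderate growth loss, or an unreliable fit; inactive = the rest.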

The subject of the first assay is Candida glabrata growth in glycerol, OD600, 48 h. Put plainly: Candida glabrata respiratory growth inhibition – glycerol medium, OD600, dry powder, dose response (AID 602186).
Details: not given
On to `O=C(Oc1c(Cl)cc(Cl)c2cccnc12)c1ccco1`, for which the AC50 is 617 nM.
Still for that read-out and setting: with `Oc1c(C(c2ccc(Cl)cc2)N2CCCC2)ccc2cccnc12` (centres undefined) the figure was 13400 nM.
Still for that read-out and setting: the same measure for `Cc1ccc(-c2nc3c(Cl)cc(Cl)cc3c(=O)n2O)cc1`: 1390 nM.
As to `CCCC(=O)NC(c1cccs1)c1cc(Cl)c2cccnc2c1O` (centres undefined), the AC50 is 2140 nM.
In the case of `O=C(Nc1nc(-c2ccccn2)cs1)c1ccccc1`, the AC50 is 11500 nM.
Turning to `Oc1c(CN2CCc3ccccc3C2)cc(Cl)c2cccnc12`, the AC50 is 13600 nM.
Same read-out and setting: with `C/C(=N\NC(=O)c1cc2ccccc2cc1O)c1ccccn1` the figure was 8890 nM.
The same measure, in the same setting: the same measure for `C=CCNC(=S)N/N=C(\C)c1ccccn1`: 508 nM.
Still for that read-out and setting: with `O=C(NNC(=S)Nc1ccc(Cl)c(Cl)c1)c1ccccn1` the figure was 119 nM.
Take `Oc1c(C(c2ccccc2Cl)N2CCCCC2)ccc2cccnc12` (centres undefined): the AC50 was 9060 nM.
As to `O=C(Nc1nnc(-c2ccc3c(c2)CCCC3)o1)c1ccccc1`, the AC50 is 10300 nM.
Still for that read-out and setting: with `Cc1ccc(C(=O)Nc2nc(-c3ccccn3)cs2)cc1` the figure was 3280 nM; with `O=C(Nc1nc(-c2ccccn2)cs1)c1ccc(Br)s1`, 1200 nM; with `O=C(Nc1nc(-c2ccccn2)cs1)c1ccc(Cl)s1`, 1380 nM.
As for `CCOC(=O)N1C(=O)C2(CCCCC2)N(c2ccc(C)cc2)C1=S`, the AC50 was 141 nM.
For `CN1CCN(C(c2ccc(C(F)(F)F)cc2)c2ccc3cccnc3c2O)CC1` (centres undefined), the AC50 was 2960 nM.

Tested on in a further assay: not listed separately
Described as above. The note with it: Candida glabrata growth in glycerol, OD600, 48 h; at 19.5 µM (top of the series).
Consider `O=C(Nc1nc(-c2ccc3c(c2)CCCC3)cs1)c1ccccc1`, for which the activity change, negative = inhibition is 25.4% (inactive).
As for `NC(=O)c1cccc(C(=O)Nc2nc(-c3ccc4c(c3)CCCC4)cs2)c1`, the activity change, negative = inhibition is 9.1% (inactive).
In the case of `Cc1cc(C)n(-c2nc3ccccc3c(=O)n2OCC#N)n1`, the activity change, negative = inhibition was -19.2% (inactive).
As to `COc1ccc(-c2nnc(NC(=O)c3ccc(S(=O)(=O)N4CCCc5ccccc54)cc3)o2)cc1`, the activity change, negative = inhibition was -21.8% (inactive).
With `O=C(Nc1nc(-c2ccccc2)cs1)c1ccc(Br)s1`, the activity change, negative = inhibition is -6.9% (inactive).
As to `O=C(Nc1nnc(-c2ccc3c(c2)CCCC3)o1)c1ccc(Cl)cc1Cl`, the activity change, negative = inhibition is -18.1% (inactive).
Take `Cc1ccc(C(=O)Nc2nnc(-c3ccccc3)o2)cc1C`: the activity change, negative = inhibition was 5.05% (inactive).

Staying with this assay, now noted: Candida glabrata growth in glycerol, OD600, 48 h; at 23.5 µM (top of the series).
As to `Oc1c(CN2CCN(c3ccccc3)CC2)cc(Cl)c2cccnc12`, the activity change, negative = inhibition is -34.4% (inactive).
